Reference: paper PMC6759624, “Unraveling Heparan Sulfate Proteoglycan Binding Motif for Cancer Cell Selectivity” (Frontiers in Oncology, 2019)
“Also recorded” adds a separate entry of the source.

Key:
[1] = test system: glypican-3; assay: SPR, NT4 binding to recombinant glypican-3; parameters: species or system human; details: rHSPG over immobilized NT4
Procedure: (§1) Experiments were performed on a Biacore T100 instrument (GE Healthcare). All materials were purchased from GE Healthcare unless otherwise specified. Full-length recombinant human HSPG were purchased from R&D Systems. Syndecan-3, syndecan-4, and glypican-3 were obtained from the mouse myeloma cell line (NS0), and glypican-4 was obtained from the Chinese Hamster Ovary cell line. The activity of syndecan-4, glypican-3, and glypican-4 was measured by the supplier as the ability of the immobilized protein to bind FGF-basic. The activity of syndecan-3 was measured by the supplier as the ability of the immobilized protein to inhibit adhesion of Saos-2 human osteosarcoma cells to human fibronectin.
(§2) NT4-biotin was captured on a CM5 sensor chip where streptavidin had previously been immobilized by standard amine coupling. Briefly, the sensor chip surface was activated with a mixture of 0.1 M 1-ethyl-3(3-dimethylaminopropyl)-carbodiimide (EDC) and 0.4 M N-hydroxyl succinimide (NHS) for 7 min at a flow rate of 5 μl/min. Streptavidin was injected over the surface for 7 min, and finally, 1 M ethanolamine pH 8.5 was used to block any activated carboxyl groups. […]
(§3) Kinetics were analyzed with the Biacore T100 evaluation 1.1.1 software using the 1:1 Langmuir model to fit the curves.

[2] = test system: glypican-4; assay: SPR, NT4 binding to recombinant glypican-4; parameters: species or system human; details: rHSPG over immobilized NT4
Procedure: as §1, §2, §3

[3] = test system: HT-29 human colon adenocarcinoma; assay: NT4 binding to cells by flow cytometry; format: cell-based; details: 1 μM NT4-biotin
Procedure: (§4) PANC-1 human pancreas adenocarcinoma, HT-29 human colon adenocarcinoma, and MCF-7 and MDA-MB-231 human breast adenocarcinoma cells were grown in the recommended American Type Culture Collection (ATCC) media, supplemented with 10% fetal calf serum, 200 μg/ml glutamine, 100 μg/ml streptomycin, 60 μg/ml penicillin, and maintained at 37°C, 5% CO2. Cell lines were purchased from ATCC, and cell profiling was analyzed to authenticate human cell lines (BMR Genomics).
(§5) All experiments were performed using 2 × 10^5 cells in 96-well U-bottom plates. All dilutions were performed in phosphate-buffered saline (PBS), containing 5 mM EDTA and 1% bovine serum albumin (BSA).
(§6) Cells were incubated with 1 μM NT4-biotin for 30 min at room temperature and then incubated with 1 μg/ml streptavidin–fluorescein isothiocyanate (FITC). For heparinase treatment, cells were incubated for 1 h at 37°C on the plates with 0.03 IU/ml heparinase I/III blend (Sigma Aldrich), and then harvested and incubated with the same concentration of heparinase in suspension for an additional hour at 37°C before NT4 staining. All experiments were repeated two times. P values were calculated using a two-tailed Student t-test and GraphPad Prism 5.0 software.

[4] = test system: MCF-7 human breast adenocarcinoma; assay: NT4 binding to cells by flow cytometry; format: cell-based; details: heparinase I/III blend 0.03 IU/ml, 1 h + 1 h at 37°C, 1 μM NT4-biotin, 30 min, room temperature, streptavidin–FITC, repeated two times
Procedure: as §4, §5, §6

[5] = test system: MDA-MB-231 human breast adenocarcinoma; assay: NT4 binding to cells by flow cytometry; format: cell-based; details: heparinase I/III blend 0.03 IU/ml, 1 h + 1 h at 37°C, 1 μM NT4-biotin, 30 min, room temperature, streptavidin–FITC, repeated two times
Procedure: as §4, §5, §6

[6] = test system: PANC-1 human pancreas adenocarcinoma; assay: NT4 binding to cells by flow cytometry; format: cell-based; details: 1 μM NT4-biotin
Procedure: as §4, §5, §6

[7] = ref [9], [10]; cited from earlier work
Description: (§7) NT4 peptide is a tetrabranched peptide that binds to GAG chains of HSPG. […] NT4 binds cell lines of different human cancers, including colon adenocarcinoma, pancreas adenocarcinoma, bladder cancer, and breast cancer ([11], [12]).

[8] = test system: PgsA-745 cells; details: Chinese hamster ovary cell mutant, deficient in xylosyltransferase; ref [13]; cited from earlier work
Description: as §7

[9] = test system: cell lines of different human cancers, including colon adenocarcinoma, pancreas adenocarcinoma, bladder cancer, and breast cancer; details: ref [11], [12]; cited from earlier work
Description: as §7

[10] = ref [13], [19] (b5); cited from earlier work
Description: (§8) NT4 peptides can be conjugated with different functional units and can selectively deliver drugs for cancer therapy or transport tracers for tumor imaging ([11], [12], [15]–[18]). […] NT4 transports the chemotherapeutic moiety to the cancer cell membrane and, ultimately, into the cell ([14]–[16]).

[11] = parameters: method as in PMID 27255651; details: compared with heparin and HS; ref [13]; cited from earlier work
[12] = test system: breast cancer cells; details: ref [13], [20]; cited from earlier work
Description: as §8, with “([14]–[16]). In animal models of cancer, the higher concentration of the cytotoxic drug at the site of the tumo ...” for “([14]–[16]).”

[13] = test system: pancreas adenocarcinoma cells; details: ref [13]; cited from earlier work
Description: as §8, with “([14]–[16]). In animal models of cancer, the higher concentration of the cytotoxic drug at the site of the tumo ...” for “([14]–[16]).”

[14] = test system: cancer cells or tissues; parameters: method as in PMID 27255651, PMID 23713525; details: competitors heparin and HS; ref [13], [19]; cited from earlier work

binding to glypican-3 [1]: bound; also recorded: binds
binding to glypican-4 [2]: bound; also recorded: binds
Substance: (pyELYENKPRRPYIL)4K2K-beta-Ala [NT4]
NT4 cell binding relative to other cell lines ([3]; HT-29 (low sulfatase expression) versus MCF-7 and MDA-MB-231, flow cytometry): bind NT4 better than the others; also recorded: higher in cell lines with lower expression of sulfatases
NT4 binding after heparinase treatment ([3]; HT-29, heparinase I/III blend 0.03 IU/ml, 1 h + 1 h at 37°C, 30 min, room temperature, streptavidin–FITC, repeated two times): much lower than to control cells
NT4 binding after heparinase treatment [4]: much lower than to control cells
NT4 binding after heparinase treatment [5]: much lower than to control cells
NT4 cell binding relative to other cell lines ([6]; PANC-1 (low sulfatase expression) versus MCF-7 and MDA-MB-231, flow cytometry): bind NT4 better than the others; also recorded: higher in cell lines with lower expression of sulfatases
NT4 binding after heparinase treatment ([6]; PANC-1, heparinase I/III blend 0.03 IU/ml, 1 h + 1 h at 37°C, 30 min, room temperature, streptavidin–FITC, repeated two times): much lower than to control cells
half-life (in words) [7]: long half-life
stability to proteolytic enzymes [7]: stable to proteolytic enzymes
binding to cells lacking GAG chains [8]: does not bind
binding to human cancer cell lines [9]: binds
binding to heparan sulfate [10]: preferential high-affinity binding
binding to heparin [10]: preferential high-affinity binding
binding to chondroitin sulfate [11]: lower affinity
effect on growth factor-induced migration and invasiveness [12]: inhibited
effect on oriented migration [13]: inhibited
inhibition of NT4 binding and internalization by heparin and HS [14]: completely inhibited
